# Source: patent US9956197B2 (priority 2013, dated 2018)
# Key:
# 6 Hz-induced seizure = assay: animal or person; format: in vivo, mice; details: ip
# [1] = test system: Picrotoxin (PIC) induced clonic seizure; assay: animal or person; format: in vivo, ICR mice
# [2] = test system: ACTH-refractory infantile spasm (behavioral spasms); assay: animal or person; format: in vivo, Sprague-Dawley rats
# [3] = test system: PTZ (Pentylenetetrazol) induced clonic seizure; assay: animal or person; format: in vivo, ICR mice; details: mouse, in vivo, ip
# [4] = test system: Lithium-pilocarpine induced status epilepticus; set-up: species or system Sprague-Dawley rats; details: in vivo
smiles,measurement,setting,value
"C[C@H](OC(N)=O)[C@@H](O)c1ccccc1Cl [Compound 1, 1-(2-chlorophenyl)-(S)-1-hydroxypropyl-(S)-2-carbamate]",ED50,"6 Hz-induced seizure; Mus musculus, read-out: 6 Hz ED50, 44 mA",13.7 mg/kg
same,6 Hz Peak Time,"6 Hz-induced seizure; mouse, in vivo",0.25 h
same,ED50,"[1]; Mus musculus, ip, read-out: PIC (ip) ED50",18.2 mg/kg
same,PIC (ip) Peak Time,[1]; mice,2 h
same,ED50,"[2]; Rattus norvegicus, ip, read-out: ACTH-refractory IS (ip) ED50",19.8 mg/kg
same,ACTH-refractory IS (ip) Peak Time,"[2]; rat, in vivo",1 h
same,PTZ test (ip) in Mice Peak Time,[3],2 h
same,"Prevention (rat, ip) Peak Time",[4],2 h
